This assay has as its target T1, lysozyme (LYS) (Gallus gallus, UniProt P00698).
T1 construct: gene LYZ; commercial lysozyme, Sigma-Aldrich, >=18,000 U; single chain of 129 residues; docking model PDB 1GWD
Briefly: intrinsic fluorescence quenching titration. The assay is classed as binding. Particulars: 298 K; Tris-HCl pH 7.43; excitation 282 nm; inner-filter corrected; double-log. An excerpt:
intrinsic fluorescence quenching titration on lysozyme (LYS)

Results on one compound are retold here after PMC4519872, “Characterization of the Interaction between Gallic Acid and Lysozyme by Molecular Dynamics Simulation and Optical Spectroscopy” (International Journal of Molecular Sciences, 2015).

The structures appear in SMILES notation.

T1 sequence (P00698 19-147): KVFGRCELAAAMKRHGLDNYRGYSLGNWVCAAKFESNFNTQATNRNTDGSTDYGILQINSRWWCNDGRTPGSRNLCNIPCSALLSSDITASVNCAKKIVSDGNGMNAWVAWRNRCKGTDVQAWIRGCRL

Turning to `O=C(O)c1cc(O)c(O)c(O)c1` [GA, 3,4,5-trihydroxybenzoic acid], the “K” value was 393000 L/mol.
